Measurements published in publication PMC5011342, “A high throughput drug screening assay to identify compounds that promote oligodendrocyte differentiation using acutely dissociated and purified oligodendrocyte precursor cells” (BMC Research Notes, 2016).
“Also recorded” adds a separate entry of the source. Read-outs that look alike come from different tables or passages of the source.

Tests used:
[1] = system: acutely dissociated and purified rat OPCs; assay: Acute OL differentiation assay (MBP expression/cell, immunofluorescent image quantification); format: cell-based; details: for EC50: average EC50 for induction of OL differentiation from independent biological replicates, eight concentrations; for hit in OL differentiation assay, MRF-TMC: ● = confirmed hit in this paper's assay
Protocol: In order to identify compounds with the potential to promote OL differentiation in vivo and thereby enhance remyelination, we first wanted to establish an in vitro assay system that would closely mimic conditions in vivo. To do this, we started by using OPCs acutely isolated from postnatal day 6–7 (P6–7) rat brains by O4 immunopanning. […] OPCs were plated directly onto a biological substrate (PDL/laminin) in 96-well view plates at moderate density to allow for sufficient room to expand processes during differentiation. We plated cells in serum-free medium lacking OPC mitogens (no PDGF or FGF) to allow a basal level of OL differentiation to commence, and as a positive control added thyroid hormone (T3, 40 ng/ml) to accelerate differentiation (Fig. 1, flow scheme).
Fig. 1 Flow scheme of the acute OL differentiation assay. a Purified oligodendrocyte precursor cells (OPCs) were cultured from P7 rat cortex and plated into PDL/laminin pre-coated 96-well plates. b One hour later test compounds were added. c OPC cultures with compound were maintained in culture for an additional 4 days. d On the 5th day with compound, cells were fixed and immunostained with anti-MBP antibodies and DAPI. e Images were acquired with automated fluorescence microscopy and scored phenotypically for OL differentiation (see “Methods” section)
To quantify the extent of OL differentiation occurring in treatment conditions, we measured the overall amount of MBP expression/cell (see “Methods” section). Figure 2a depicts the mask created over MBP staining under which the MBP expression was quantified. […]
All animal work was carried out in strict accordance with the recommendations in the Guide for the Care and Use of Laboratory Animals of the National Institutes of Health. The protocol was approved by the Institutional Use and Care and Use Committee at the Molecular Medicine Research Institute (Sunnyvale, CA). Animals used for OPC isolation in these studies were euthanized by decapitation. OPCs from brains of P6-P7 Sprague–Dawley rat pups (Charles River, Wilmington, MA, USA) were enriched by immunopanning as previously described (Dugas et al. 2006). Briefly, single cell suspensions were obtained from papain-digested neonatal brains and depleted of mature glial cells by successive panning with RAN-2- and GalC-coated plates, followed by enrichment for OPCs using O4-coated plates. OPCs were plated in differentiation media (DMEM, 100 U/ml Penicillin/100 µg/ml streptomycin, 2 mM L-glutamine, 1 mM Na pyruvate, 5 µg/ml insulin, 5 µg/ml N-acetyl-L-cysteine, 1× trace elements B,10 ng/ml d-Biotin, 100 µg/ml BSA, 100 µg/ml apo-transferrin, 16 µg/ml putrescine, 60 ng/ml progesterone, 40 ng/ml sodium selenite 5 ng/ml forskolin, 10 ng/ml CNTF, 1 ng/ml NT-3).
Acutely enriched OPCs were plated in differentiation media at 5000 cells/well into PDL/laminin coated 96-well view plates and centrifuged at 200×g to facilitate cell attachment, survival, and even distribution of OPCs. OPCs were pre-incubated for 1–2 h at 37 °C in 10 % CO2, followed by the addition of test compounds in quadruplicate. Controls were added in eight replicate wells, negative control = 0.1 % DMSO; positive control = 40 ng/ml T3. The day of OPC plating was considered DIV0. On DIV4, cells were fixed, immunostained for myelin basic protein (MBP) expression, imaged and quantified as described below.

[2] = system: expanded OPCs; assay: cells; details: for viability at 0.1 µM / viability at 1 µM / viability at 10 µM: Rattus norvegicus, 72 h; for 0.1 µM (% DMSO) / 1 µM (% DMSO) / 10 µM (% DMSO): alamarBlue viability of expanded OPCs, relative to DMSO control; for 0.1 µM (% DMSO): compound at 0.1 µM; for 1 µM (% DMSO): compound at 1 µM; for 10 µM (% DMSO): compound at 10 µM
Protocol: Having established a consistent assay for measuring OL differentiation in vitro, the next step was to utilize this assay to assess the ability of a wide array of compounds to promote OL differentiation. Prior to library screening, we first established the maximum non-toxic dose of each compound in the library. […] Therefore, we added each compound in the NIH clinical collection (NCC) library to OPCs at 10, 1, and 0.1 µM concentrations. Three days later, we assessed viability of the treated cells by measuring AlamarBlue fluorescence, a measure of cell viability (see “Methods” section). […] Appropriately, we established three sets of screening concentrations for library compounds: non-toxic compounds were tested at 10 and 2 µM, slightly toxic compounds (only toxic at 10 µM) were tested at 2 and 0.4 µM, and very toxic compounds were tested at 0.4 and 0.08 µM.
OPCs were expanded in vitro by seeding into PDL-coated tissue culture flasks at 1000–2000 cells/cm^2 in differentiation media supplemented with 10 ng/ml PDGF-AA. Proliferating OPCs were fed every 2–3 days and supplemented with 2–3× concentration of PDGF as needed to prevent OPC differentiation. After 6–7 days of proliferation, OPCs were harvested by trypsinization, plated into PDL-coated 96-well Falcon plates and centrifuged at 200×g to facilitate cell attachment, survival, and even distribution of cells. Expanded OPCs were seeded in differentiation media at 10,000 cells/well and incubated for 2 h at 37 °C, 10 % CO2 prior to addition of compounds. The NCC library was diluted and added to cells at 10, 1, and 0.1 µM; each concentration was tested in quadruplicate. As a positive control for the induction of toxicity, 5 ng/ml tunicamycin was added to 8 wells in each plate. Three days later, a 1:10 dilution of alamarBlue® (AB) was added to each well and cells were incubated 4 h at 37 °C, 10 % CO2. AB fluorescence was measured using a PerkinElmer Victor II fluorescence microplate reader (PerkinElmer, Waltham, MA) with 560 nm excitation/590 nm emission filters. For library screening, the highest concentration of each compound was adjusted to a minimally toxic concentration based on this toxicity data. Compounds were additionally tested at a second concentration that was 1/5th of the top concentration. The final concentration of DMSO in each well was 0.1 %.

[3] = Rattus norvegicus, 2 uM test compound, relative to quetiapine, sheet "All OLga data", read-out: OL differentiation, 2 uM (% Quet)
[4] = Rattus norvegicus, 10 uM test compound, relative to quetiapine, sheet "All OLga data", read-out: OL differentiation, 10 uM (% Quet)
[5] = read-out: 0.1 µM (% DMSO), alamarBlue viability of expanded OPCs, compound at 0.1 µM, sheet All Tox data
[6] = read-out: 1 µM (% DMSO), alamarBlue viability of expanded OPCs, compound at 1 µM, sheet All Tox data
[7] = read-out: 10 µM (% DMSO), alamarBlue viability of expanded OPCs, compound at 10 µM, sheet All Tox data
[8] = Rattus norvegicus, test compound at 2 uM, NCC library screen, sheet "All OLga data", relative to quetiapine, read-out: 2 uM (% Quet)
[9] = Rattus norvegicus, test compound at 10 uM, NCC library screen, sheet "All OLga data", relative to quetiapine, read-out: 10 uM (% Quet)
[10] = read-out: 0.1 µM (% DMSO), alamarBlue viability, NCC library compound at 0.1 µM, sheet "All Tox data"
[11] = read-out: 1 µM (% DMSO), alamarBlue viability, NCC library compound at 1 µM, sheet "All Tox data"
[12] = read-out: 10 µM (% DMSO), alamarBlue viability, NCC library compound at 10 µM, sheet "All Tox data"

C[C@]12CCC(=O)C[C@@H]1CC[C@@H]1[C@@H]2CC[C@@]2(C)[C@H]1CC[C@]2(C)O [Mestanolone]
activation at 2 µM [1, 3]: 0.8% | activation at 10 µM [1, 4]: -18% | viability at 0.1 µM [2, 5]: 102% | viability at 1 µM [2, 6]: 94.1% | viability at 10 µM [2, 7]: 120%

CN(C)C(=O)C(CCN1CCC(O)(c2ccc(Cl)cc2)CC1)(c1ccccc1)c1ccccc1 [Loperamide]
activation at 0.08 µM ([1]; Rattus norvegicus, test compound at 0.08 uM, NCC library screen, sheet "All OLga data", relative to quetiapine, read-out: 0.08 uM (% Quet)): -0.19% | activation at 0.4 µM ([1]; Rattus norvegicus, test compound at 0.4 uM, NCC library screen, sheet "All OLga data", relative to quetiapine, read-out: 0.4 uM (% Quet)): -17.5% | 0.1 µM (% DMSO) [2]: 70.2 % DMSO | 1 µM (% DMSO) [2]: 40.0 % DMSO | 10 µM (% DMSO) [2]: 11.4 % DMSO

NS(=O)(=O)c1cc(C(=O)O)c(NCc2ccco2)cc1Cl [Furosemide]
activation at 2 µM [1, 8]: 6% | activation at 10 µM [1, 9]: -6% | 0.1 µM (% DMSO) [2]: 87.5 % DMSO | 1 µM (% DMSO) [2]: 91.0 % DMSO | 10 µM (% DMSO) [2]: 97.3 % DMSO

O=C(O)C(Cl)Cl [Dichloroacetic Acid]
activation at 2 µM [1, 8]: 0.66% | activation at 10 µM [1, 9]: 13.7% | viability at 0.1 µM [2, 10]: 99.2% | viability at 1 µM [2, 11]: 83.6% | viability at 10 µM [2, 12]: 83.5%

CC(C)(C)NC(=O)[C@@H]1CN(Cc2cccnc2)CCN1C[C@@H](O)C[C@@H](Cc1ccccc1)C(=O)N[C@H]1c2ccccc2C[C@H]1O [Indinavir]
activation at 2 µM [1, 3]: 13.4% | activation at 10 µM [1, 4]: -44.2% | viability at 0.1 µM [2, 5]: 105% | viability at 1 µM [2, 6]: 91.7% | viability at 10 µM [2, 7]: 92.2%

C[C@]12C=CC(=O)C=C1CC[C@@H]1[C@@H]2[C@@H](O)C[C@@]2(C)[C@H]1CC[C@]2(O)C(=O)COC(=O)CCC(=O)O [Prednisolone hemisuccinate]
activation at 2 µM [1, 8]: 10.2% | activation at 10 µM [1, 9]: 9.3% | viability at 0.1 µM [2, 10]: 107% | viability at 1 µM [2, 11]: 95% | viability at 10 µM [2, 12]: 94.3%

CC(C)(O)[C@@H]1[C@H]2OC(=O)[C@@H]1[C@]1(O)C[C@H]3O[C@]34C(=O)O[C@H]2[C@]14C [Picrotin]
activation at 2 µM [1, 3]: 6.5% | activation at 10 µM [1, 4]: 5.9% | viability at 0.1 µM [2, 5]: 84.8% | viability at 1 µM [2, 6]: 84.6% | viability at 10 µM [2, 7]: 85.6%

CN(C)CCC[C@@]1(c2ccc(F)cc2)OCc2cc(C#N)ccc21 [Escitalopram, reference compound]
EC50 ([1]; Rattus norvegicus): 1.3 µM | hit in OL differentiation assay, MRF-TMC [1]: ●

COc1c(N2C[C@@H]3CCCN[C@@H]3C2)c(F)cc2c(=O)c(C(=O)O)cn(C3CC3)c12 [Moxifloxacin]
activation at 2 µM [1, 3]: 20.2% | activation at 10 µM [1, 4]: 16.3%

Nc1nc2ccc(OC(F)(F)F)cc2s1 [Riluzole]
activation at 2 µM [1, 3]: -11.1% | activation at 10 µM [1, 4]: 32.6%

N[C@@H](Cc1cc(I)c(Oc2ccc(O)c(I)c2)c(I)c1)C(=O)O [T3, triiodothyronine, reference compound]
promotion of OL differentiation (in words) ([1]; MBP expression versus 0.1 % DMSO negative control): able to promote OL differentiation at one or both concentrations tested; also recorded: consistently and significantly promote OL differentiation

COc1ccc(CC(C)NCC(O)c2ccc(O)c(NC=O)c2)cc1 (centres unmarked) [Formoterol]
activation at 2 µM ([1]; Rattus norvegicus, read-out: 2 uM (% Quet)): 4.6% | activation at 10 µM ([1]; Rattus norvegicus, read-out: 10 uM (% Quet)): 12.1%

CC1CCN(CCCC(=O)c2ccc(F)cc2)CC1 [Metylperon, reference compound]
EC50 ([1]; Rattus norvegicus): 7.3 µM | hit in OL differentiation assay, MRF-TMC [1]: ●

Cc1c(C(=O)NN2CCCCC2)nn(-c2ccc(Cl)cc2Cl)c1-c1ccc(I)cc1 [AM 251]
0.4 uM (% Quet) [1]: -5.0 % Quet | 2 uM (% Quet) [1]: -199.0 % Quet

COc1cc2c(cc1OC)C(=O)C(CC1CCN(Cc3ccccc3)CC1)C2 (centres unmarked) [Donepezil, reference compound]
activation at 2 µM [1, 3]: 94.8% | activation at 10 µM [1, 4]: 75.6% | hit in OL differentiation assay, MRF-TMC [1]: ●

COC(=O)C1=C(C)NC(C)=C(C(=O)OC)C1c1ccccc1[N+](=O)[O-] [Nifedipine]
activation at 0.4 µM ([1]; Rattus norvegicus, 0.4 uM test compound, relative to quetiapine, sheet "All OLga data", read-out: OL differentiation, 0.4 uM (% Quet)): 19.7% | activation at 2 µM [1, 3]: -8.9%
